Molecular target: T1, CCR2 (Mus musculus, UniProt P51683)
T1 construct: membranes from Ba/F3 cells transfected with mouse CCR2
Test: […]-rhCCL2 radioligand displacement, SPA, on membranes in mouse plasma
Format: binding

T1 sequence (P51683 whole entry): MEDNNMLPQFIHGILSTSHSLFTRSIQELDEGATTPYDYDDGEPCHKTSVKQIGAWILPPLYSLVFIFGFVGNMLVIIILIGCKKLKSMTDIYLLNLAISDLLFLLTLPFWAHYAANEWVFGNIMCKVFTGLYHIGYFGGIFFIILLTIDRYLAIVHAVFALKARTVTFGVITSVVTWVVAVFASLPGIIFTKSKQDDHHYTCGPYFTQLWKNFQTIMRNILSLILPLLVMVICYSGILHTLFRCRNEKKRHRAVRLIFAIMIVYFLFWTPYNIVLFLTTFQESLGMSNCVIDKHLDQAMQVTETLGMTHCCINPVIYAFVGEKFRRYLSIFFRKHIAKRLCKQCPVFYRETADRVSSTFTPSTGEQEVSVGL

IC50: 19 nM
SMILES: CO[C@@H]1COCC[C@@H]1N[C@@H]1CC[C@@](C(=O)N2CCc3ncc(C(F)(F)F)cc3C2)(C(C)C)C1 [MK0812]

From paper PMC2777898, “CCR2 and CXCR4 regulate peripheral blood monocyte pharmacodynamics and link to efficacy in experimental autoimmune encephalomyelitis” (Journal of Inflammation (London, England), 2009)
